Source: ChEMBL document CHEMBL4699583 (J Med Chem, 2020)

Legend:
[1] = target: DNA topoisomerase 2-alpha (Homo sapiens, UniProt P11388); test: Inhibition of recombinant human topoisomerase 2alpha using supercoiled pBR322 DNA as substrate incubated for 60 mins by ethidium bromide dye based agarose gel electrophoresis method
[2] = Kinetic solubility of compound in PBS at pH 7.4 incubated for 24 hrs under shaking condition by UPLC-MS analysis; assay type: physicochemical; details: for Kinetic_solubility: buffer, pH 7.4, 24 h
in vitro = details: mouse, liver microsomes

DNA topoisomerase 2-alpha, sequence (P11388 whole entry): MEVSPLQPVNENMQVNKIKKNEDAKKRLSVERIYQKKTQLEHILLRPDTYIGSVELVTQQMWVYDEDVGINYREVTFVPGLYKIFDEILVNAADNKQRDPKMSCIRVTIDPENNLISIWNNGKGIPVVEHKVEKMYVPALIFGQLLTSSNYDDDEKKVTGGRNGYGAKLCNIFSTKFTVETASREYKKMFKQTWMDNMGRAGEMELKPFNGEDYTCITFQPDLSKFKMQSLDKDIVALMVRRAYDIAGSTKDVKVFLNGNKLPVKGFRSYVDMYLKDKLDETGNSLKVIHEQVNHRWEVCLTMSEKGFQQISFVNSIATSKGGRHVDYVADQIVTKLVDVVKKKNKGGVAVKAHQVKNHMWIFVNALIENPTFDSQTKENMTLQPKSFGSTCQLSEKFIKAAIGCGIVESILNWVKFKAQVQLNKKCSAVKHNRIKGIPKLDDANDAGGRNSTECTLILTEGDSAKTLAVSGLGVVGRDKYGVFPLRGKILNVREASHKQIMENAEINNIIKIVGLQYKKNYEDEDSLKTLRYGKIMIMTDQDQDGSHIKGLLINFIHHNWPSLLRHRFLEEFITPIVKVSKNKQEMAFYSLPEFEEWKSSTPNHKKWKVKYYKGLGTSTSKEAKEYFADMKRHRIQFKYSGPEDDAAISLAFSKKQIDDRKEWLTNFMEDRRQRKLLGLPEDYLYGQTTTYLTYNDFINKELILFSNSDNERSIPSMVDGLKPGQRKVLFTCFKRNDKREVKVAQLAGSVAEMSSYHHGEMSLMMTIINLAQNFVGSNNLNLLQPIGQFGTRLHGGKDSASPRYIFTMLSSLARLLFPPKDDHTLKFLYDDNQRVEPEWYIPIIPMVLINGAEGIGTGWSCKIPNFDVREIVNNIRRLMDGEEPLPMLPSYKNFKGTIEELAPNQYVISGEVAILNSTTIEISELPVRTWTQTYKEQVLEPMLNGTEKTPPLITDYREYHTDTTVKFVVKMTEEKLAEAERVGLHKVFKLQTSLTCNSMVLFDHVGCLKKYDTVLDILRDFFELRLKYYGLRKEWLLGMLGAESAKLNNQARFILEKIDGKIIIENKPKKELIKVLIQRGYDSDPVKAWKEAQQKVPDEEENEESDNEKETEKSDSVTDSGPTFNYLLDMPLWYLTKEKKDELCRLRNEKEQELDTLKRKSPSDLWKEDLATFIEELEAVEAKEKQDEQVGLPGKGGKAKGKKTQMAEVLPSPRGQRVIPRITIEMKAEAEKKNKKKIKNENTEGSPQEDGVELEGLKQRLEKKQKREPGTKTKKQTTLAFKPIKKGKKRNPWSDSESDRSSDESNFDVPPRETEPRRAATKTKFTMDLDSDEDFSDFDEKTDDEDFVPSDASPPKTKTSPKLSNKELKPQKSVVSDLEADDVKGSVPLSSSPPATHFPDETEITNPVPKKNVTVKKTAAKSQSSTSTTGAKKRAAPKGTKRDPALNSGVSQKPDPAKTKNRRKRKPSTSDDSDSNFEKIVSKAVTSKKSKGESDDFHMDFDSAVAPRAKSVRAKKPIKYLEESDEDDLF

With CN(C)c1cccc(Nc2nc(-c3ccncc3)nc3c2CC(N)CC3)c1 (centres undefined) as the molecule, how does the IC50 [1] read?
Its IC50 is “Not Active”.

With Fc1cccc(Nc2nc(-c3ccncc3)nc3c2CCCC3)c1 as the molecule, how does the IC50 [1] read?
Its IC50 is “Not Active”.

Which IC50 [1] does the source give for CN(c1cccc(F)c1)c1nc(-c2ccncc2)nc2c1CC(N)CC2 (centres undefined) here?
Its IC50 is “Not Active”.

With NC1CCc2nc(-c3ccncc3)nc(Nc3ccccc3)c2C1 (centres undefined) as the molecule, how does the IC50 [1] read?
Its IC50 is “Not Active”.

Which IC50 [1] does the source give for COc1ccc(Nc2nc(-c3ccncc3)nc3c2CC(N)CC3)cc1 (centres undefined) here?
The IC50 was “Not Active”.

Which IC50 [1] does the source give for NC1CCc2nc(-c3ccncc3)nc(Nc3ccccc3F)c2C1 (centres undefined) here?
Its IC50 is “Not Active”.

With NC1CCc2nc(-c3ccncc3)nc(Nc3cccc(F)c3)c2C1 (racemic) as the molecule, how does the Kinetic_solubility [2] read?
Its Kinetic_solubility is 126 µM.

With COc1cccc(Nc2nc(-c3ccncc3)nc3c2CC(N)CC3)c1 (centres undefined) as the molecule, how does the half-life at 1 h, 4.6 µM (in vitro) read?
The half-life at 1 h, 4.6 µM was greater than 1 h.

What about the Kinetic_solubility [2] of the same molecule?
The Kinetic_solubility was greater than 250 µM.

With NC1CCc2nc(-c3ccccn3)nc(Nc3cccc(F)c3)c2C1 (centres undefined) as the molecule, how does the IC50 [1] read?
The IC50 was “Not Active”.

With NC1CCc2nc(-c3ccncc3)nc(Nc3ccc(F)cc3)c2C1 (centres undefined) as the molecule, how does the half-life at 1 h, 4.6 µM (in vitro) read?
Its half-life at 1 h, 4.6 µM is greater than 1 h.

What about the Kinetic_solubility [2] of the same molecule?
The Kinetic_solubility was greater than 250 µM.

For NC1CCc2nc(-c3cccnc3)nc(Nc3cccc(F)c3)c2C1 (centres undefined), which half-life at 1 h, 4.6 µM (in vitro) is on record?
Its half-life at 1 h, 4.6 µM is greater than 1 h.

And the solubility kinetic at 24 h ([2]; PBS, pH 7.4, read-out: Kinetic_solubility)?
Its solubility kinetic at 24 h is greater than 250 µM.
